Assay results published in paper PMC10778976, “BAY-3827 and SBI-0206965: Potent AMPK Inhibitors That Paradoxically Increase Thr172 Phosphorylation” (International Journal of Molecular Sciences, 2023).
Read-outs that look alike come from different tables or passages of the source.

How the values were obtained:
[1] = tested on: endogenous AMPK from HEK-293 cells; assay: Protection of immunoprecipitated AMPK against inactivation by PP2Cα (PPM1A); format: biochemical, human; details: immunoprecipitated AMPK, 10 min 30 °C; read-out: half-maximal effect on protection against inactivation by PPM1A
Procedure: AMPK was immunoprecipitated from HEK-293 cell lysate (2.5 mg of lysate protein) using a mixture of anti-α1 and -α2 antibodies. After extensive washing as in Section 4.5, aliquots equivalent to 80 µg of lysate protein were incubated in a shaking incubator at 30 °C for 10 min in Hepes buffer (50 mM Na Hepes, pH 7.4, 150 mM NaCl, 1 mM dithiothreitol, 0.02% (w/v) Brij-35) with 50 mM MgCl2 and sufficient PPM1A to yield about 80% inactivation, in the presence or absence of 200 µM AMP or the indicated concentration of BAY-3827 or SBI-0206965 (total volume 50 µL). The reaction was terminated by adding 1 mL of IP buffer (50 mM Tris/HCl, pH 7.4 at room temperature, 150 mM NaCl, 1 mM EDTA, 1 mM EGTA, 5 mM Na pyrophosphate, 50 mM NaF, 1 mM dithiothreitol, 0.1% (v/v) Triton X-100) and, after additional washing in the same buffer and a final wash into Hepes buffer, AMPK activity was determined using kinase assays as above.

[2] = tested on: acetyl-CoA carboxylase (ACC, Ser80) phosphorylation in U2OS cells; assay: ACC phosphorylation in U2OS cells (Western blot); format: cell-based, human; details: 30 min inhibitor then 30 min MK-8722 (300 nM), read-out: IC50, inhibition of MK-8722-stimulated ACC phosphorylation
Procedure: (§1) T-Rex U2OS cells carrying a Flp Recombinase Target (FRT) site were generated as described previously and grown in Dulbecco’s Modified Eagle’s Medium (DMEM) supplemented with 10% (v/v) FBS and 1% (v/v) penicillin/streptomycin.
(§2) Cells were lysed rapidly in situ on culture plates using ice-cold lysis medium containing phosphatase inhibitors, as described previously.
(§3) SDS-PAGE was performed using precast NuPAGE Tris-acetate 3–8% gradient polyacrylamide gels in Tris-acetate running buffer when analyzing ACC, GBF1, or Raptor, or NuPAGE Bis-Tris 4–12% gradient polyacrylamide gels in the MOPS buffer system (ThermoFisher Scientific, Waltham, MA, USA) for other proteins (unless stated otherwise). Proteins were transferred to nitrocellulose membranes using the iBlot 2 system (ThermoFisher Scientific). Membranes were enhanced if necessary using SuperSignal Western Blot Enhancer (ThermoFisher Scientific), then blocked for 1 h in Li-Cor Odyssey blocking buffer. The membranes were probed with the appropriate primary antibody ([…]) overnight at 4 °C. Detection was performed using secondary antibody or streptavidin probe (for total ACC) coupled to IR 680 or IR 800 dye, and the membranes were scanned using the LICOR Odyssey IR imager. Protein concentrations were determined by Coomassie Blue binding with bovine serum albumin as a standard. The cellular levels of AMP and ATP were determined via direct perchloric acid extraction from cells, with LC:MS used to estimate the levels of each nucleotide.

[3] = biological target: T1, isolated kinase domain of the human α2 isoform (residues 1–310) (Homo sapiens, UniProt P54646); assay: Cell-free kinase assay of isolated α2 kinase domain phosphorylated on Thr172 by CaMKK2; format: biochemical; details: for IC50: ATP 200 µM, read-out: IC50, inhibition of human α2 kinase domain
T1 construct: human GST-tagged α2 kinase domain (1–310) was produced as described; GST; made in house
T1 sequence (P54646 1-310): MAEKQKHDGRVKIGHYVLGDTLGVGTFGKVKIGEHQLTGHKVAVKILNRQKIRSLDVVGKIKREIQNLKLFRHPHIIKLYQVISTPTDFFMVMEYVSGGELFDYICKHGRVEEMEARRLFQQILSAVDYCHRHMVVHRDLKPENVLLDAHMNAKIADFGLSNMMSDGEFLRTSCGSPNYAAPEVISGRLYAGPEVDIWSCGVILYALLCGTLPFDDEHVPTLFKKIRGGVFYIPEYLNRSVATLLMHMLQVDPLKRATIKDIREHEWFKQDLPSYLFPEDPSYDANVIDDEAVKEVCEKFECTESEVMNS
Source text: AMPK assays measured the transfer of radioactivity from labelled ATP to a peptide substrate, which was separated from unreacted ATP by binding to P81 paper. This assay was described previously, except that we used [γ-^33P]ATP rather than [γ-^32P]ATP. The peptide substrate was the AMARA peptide in all experiments other than one, which analyzed allosteric activation by AMP (Figure 2A), when, for technical reasons, the SAMS peptide was used instead. With purified preparations of AMPK, it was assayed in solution, but for assays in cell lysates (Figure 3D and Figure 4D), it was first immunoprecipitated using a mixture of anti-α1 and -α2 antibodies and assayed in resuspended immunoprecipitates. After the initial immunoprecipitation of lysate containing 80 µg of protein, the pellets were washed twice with 1 mL of high salt IP buffer (50 mM Tris-HCL, pH 7.4 at 4 °C, 1 M NaCl, 1 mM EDTA, 1 mM EGTA, 50 mM NaF, 5 mM Na pyrophosphate, 1 mM dithiothreitol, 0.1% (v/v) Triton X-100) and twice with 1 mL of low salt IP buffer (as above but only 150 mM NaCl), followed by a final wash in 1 mL of assay buffer (50 mM Na Hepes, pH7.4, 150 mM NaCl, 1 mM dithiothreitol, 0.02% (v/v) Brij-35). After each wash, the pellet was recovered via centrifugation (16,000× g, 3 min) and then resuspended. The final resuspended pellets from each biological replicate were divided into two aliquots (40 µg lysate protein) to provide technical replicates and assayed as above.
Bacterially expressed heterotrimers and kinase domain constructs (Figure 1B–D) were activated through Thr172 phosphorylation using ATP and GST-tagged CaMKK2, and CaMKK2 was removed via passage through glutathione-Sepharose, as described previously.

[4] = tested on: endogenous AMPK from HEK-293 cells; assay: Activation of dephosphorylated immunoprecipitated AMPK by the LKB1 complex; format: biochemical, human; details: increasing concentrations; SBI-0206965 effect reversed above 1 µM
Procedure: AMPK was immunoprecipitated from HEK-293 cell lysate (2.5 mg protein) using a mixture of anti-α1 and -α2 antibodies. After extensive washing, it was incubated in a shaking incubator at 30 °C for 20 min in Hepes buffer with 50 mM MgCl2 and sufficient PPM1A to yield about 90% inactivation (total volume of 250 µL). The reaction was terminated by adding 1 mL of IP buffer and, after additional washing in the same buffer, aliquots equivalent to 80 µg of lysate protein were incubated in a shaking incubator at 30 °C for 10 min in Hepes buffer with […] and 5 mM MgCl2, with or without a limiting amount of LKB1:STRADα:MO25α complex (0.5 µg) in the presence or absence of 200 µM AMP or the indicated concentration of BAY-3827 or SBI-0206965 (total volume of 50 µL). The reaction was terminated by adding 1 mL of IP buffer and, after additional washing in the same buffer and a final wash into Hepes buffer, AMPK activity was determined using kinase assays as above.

[5] = tested on: U2OS cells; assay: Cellular AMP:ATP ratio via LC:MS in U2OS cells; format: cell-based, human
Procedure: as §1, §3

[6] = tested on: Raptor (Ser792) phosphorylation in U2OS cells; assay: Raptor phosphorylation in U2OS cells (Western blot); format: cell-based, human; details: 30 min inhibitor then 30 min MK-8722 (300 nM), read-out: IC50, inhibition of MK-8722-stimulated Raptor phosphorylation
Procedure: as §1, §2, §3

IC50 ([2]; Homo sapiens, U2OS, 0.5 h) [µM]	Apparent Vmax ([3]; BAY-3827 10 nM) [µmol/min/mg]	Apparent Vmax ([3]; BAY-3827 30 nM) [µmol/min/mg]	Apparent Vmax ([3]; BAY-3827 100 nM) [µmol/min/mg]	Apparent Vmax ([3]; BAY-3827 300 nM) [µmol/min/mg]	IC50 ([6]; Homo sapiens, 0.5 h) [µM]	Structure (SMILES)	EC50 [1] [µM]	IC50 [2] [µM]	IC50 [3] [µM]	effect on activation of AMPK by LKB1 [4]	effect on cellular AMP:ATP ratios ([5]; all concentrations used)	increase in cellular AMP:ATP ratio ([5]; 300 µM, 1 h incubation) [fold]	IC50 [6] [µM]
0.26	2.09	1.78	1.69	1.27	0.113	CCc1ccccc1C(=O)Nc1n[nH]c2c(C)c(F)c(C3C(C#N)=C(C)N(C)C(C)=C3C#N)cc12 [BAY-3827]	0.007	0.27	0.089	little or no effect	did not cause any change		
						CNC(=O)c1ccccc1Oc1nc(Nc2cc(OC)c(OC)c(OC)c2)ncc1Br [SBI-0206965]	0.29	42	0.545	progressively promoted activation by LKB1		> 30	9.2
